In one series the target is MAPKAP-K1b (Oryctolagus cuniculus, UniProt A0A5F9C4L9). The following applies: cited from earlier work.
A further series has as its target MSK1 (Homo sapiens, UniProt O75582). The following applies: cited from earlier work.
For series [1] the following is noted: cited from earlier work.
The conditions of series [2]: rat, in vivo, po, 30 mg/kg; cited from earlier work.
In a further series the target is PRK2 (Homo sapiens, UniProt Q16513). The following applies: cited from earlier work.
For another series, the system named is PHK. The following applies: cited from earlier work.
Series [3] concerns PC12 cells on MAG substrates. Nature of the series: Bioassay of PC12 neurite growth on growth inhibitory myelin-associated glycoprotein (MAG) substrates. It counts as cell-based. The following applies: Dihydrochloride; for neurite outgrowth on inhibitory MAG substrates (FIG. 4): PC12 cells, 0.31, 3.1 or 31 uM. On the procedure:
PC-12 cells (ATCC CRL-1721) typically extend neurites in response to NGF, but when plated on inhibitory substrates, this outgrowth is inhibited and the cells remain round. We tested the ability of the new compound to grow neurites when plated on inhibitory substrates.
We used PC12 cells obtained from the American Type Culture Collection. PC12 cells were grown in Dulbecco's modified eagle's medium (DMEM) with 10% horse serum and 5% fetal bovine serum. To test compounds for the ability to overcome growth inhibition, PC12 cells were collected by detaching with trypsin-EDTA (0.05%), then resuspended in DMEM, 1% FBS, and 50 ng/ml nerve growth factor before plating on MAG substrates. MAG used for substrates was purified from myelin after extraction in 1% octylglucoside and separation by ion exchange chromatography (McKerracher et al. 1994, Neuron 13:805-811). Test substrates were prepared as uniform substrates in 96-well plates by drying overnight in the laminar flow hood (Nalge Nunc, Naperville, Ill.). Plates were precoated with polylysine (100 μg/ml) for 3 hours at 37° C., then washed and dried approx. 1 hour. MAG was prepared as a substrate by drying down 8 μg of protein overnight. After plating on the MAG substrate, the cells were grown at 37 C. for two days in the presence or absence of test compound (BA1003, BA1016, BA1017) to allow neurite growth. Polylysine substrates were used as a positive control. Quantitative analysis of neurite outgrowth was with the aid of Northern Eclipse software (Empix Imaging, Mississauga, Ontario). Data analysis and statistics were with Microsoft Excel.
Referring to FIG. 4 there is shown a graph illustrative of experiments performed in triplicate testing the ability of BA-1003, BA-1016 and BA-1017 to overcome growth inhibition by MAG. PC12 cells were plated on MAG substrates alone (MAG) or MAG substrates in the presence of 0.31 uM, 3.1 um or 31 um concentrations of the test compound. The numbers of neurons that grew neurites were scored, and are shown as the percentage of neurite growth.

Series [4] deals with NG108-15 neuronal cell line. Kind of series: Rapid bioassay of neurite growth in NG108-15 cells. The series is classed as cell-based. The following applies: for neurite outgrowth (FIG. 2): NG108 cells, 3.1 to 31 μM. As to the method: When neurons are placed on inhibitory substrates in tissue culture, the neurons remain rounded. When an effective Rho kinase inhibitor is added to the neurons, the neurons are able to grow neurites on myelin substrates. The time that it takes for neurons to grow neurites after the addition of a Rho kinase inhibitor is about the same as the time that it takes for neurons to grow neurites if the neurons had been plated on growth permissive substrate such as laminin or polylysine, which time is typically 1 to 2 days in cell culture. An assessment of resulting neurite growth can be scored by visual means. If needed, a quantitative assessment of neurite growth can be performed. This involves measuring after a time such as 1 to 2 days the neurite length a) in control cultures where neurons are plated on myelin substrates and left untreated with Rho kinase inhibitor for such time, b) in positive control cultures, wherein for example neurons are plated on polylysine but left untreated with Rho kinase inhibitor for such time, and c) in cultures analogous to a) and b) that are treated with different concentrations of a Rho kinase inhibitor for such time. […] In this assay, NG108 cells are plated on plastic in the presence or absence of the test substance (a Rho kinase inhibitor). […] The relative efficacy can be assessed by fixing the cultures 5 hours after plating, and counting the number of cells that have grown neurites.
A rapid bioassay is used to determine the effect of a test compounds on the stimulation of neurite growth in vitro. A neuronal cell line, NG108-15 (ATCC HB-12317), is maintained in culture in Dulbecco's minimal essential medium (DMEM) supplemented with 10% fetal bovine serum, Penicillin/Streptomycin and HAT supplement (Gibco/BRL). For the bioassay, the cells are collected by trypsinisation and ressuspended in DMEM supplemented with 5% FBS, Penicillin/Streptomycin, HAT supplement and 0.25 mg/ml cAMP, adjusted to 1.0×10^4 cells/ml. The cells are plated into wells of a 96 well plate at 100 μls (1000 cells)/well. Cells are incubated 4 h at 37° C. and 5% CO2 in presence of small molecules or cethrin at a concentration of 1000 cells per well of a 96-wells plate in a final volume of 100 ul.
After incubation, cells are fixed by adding […] 16% PFA and 5.4 μls 2.5% glutaraldehyde to the media in each well. The wells are stained with cresyl violet 0.05% , 100 μls/well for 15 min. Cells with neurites (length≧one cell body) are counted using an inverted light microscope. The % neurite outgrowth is determined by calculating the number of cells with neurites over the total number of counted cells.

The target of another series is T1, ROCK II (Rattus norvegicus, UniProt Q62868).
T1 construct: purchased Upstate (Lake Placid, N.Y.)
Nature of the series: ROCK II kinase assay with [γ-32P] ATP and myelin basic protein substrate (FIG. 3). It counts as biochemical. The following applies: 100 μM ATP, 30 min at 30° C. From the text:
The ability of compounds to inhibit ROK activity may be tested in a cell-free assay system using recombinant ROK, radiaoactive ATP, and Myelin basic Protein (MBP). MBP is a highly phosphorylated protein, is inexpensive to buy in purified form, is phosphorylated by ROK, and is used as the assay substrate for phosphorylation. Recombinant ROK has been prepared from a number of sources. Overexpression in mammalian cells provides a convenient, easily renewed source of ROK activity. Measurement of Rho-associated kinase (ROK) activity is important to determine the potency of novel inhibitors. MBP is a substrate for ROK and a number of other protein kinases, making it useful both to quantitate ROK activity and to indicate the potency and specificity of novel inhibitors for ROK. […]
ROCK II was assayed in 20 mM MOPS, pH 7.2, 25 mM β-glycerophosphate, 5 mM EGTA, 1 mM sodium orthovanadate, 1 mM dithiothreitol with dephosphorylated myelin basic protein (MBP, 0.2 mg/ml) as substrate with or without BA-1016 or BA-1017. […] Assays were initiated by adding Mg^2+/ATP and terminated by spotting 40 μl of each reaction onto phosphocellulose paper (P81 paper, Whatman), followed by washes in 0.75% phosphoric acid to remove ATP and then dried, put in scintillation cocktail and counted to measure ^32P incorporation. Radioactivity is measured using a scintillation counter. […]

Series [5] concerns HEC-1B human adnocarcinoma. Nature of the series: Thymidine uptake anti-proliferation assay, HEC-1B. It counts as cell-based. The following applies: 100 uM, versus DMSO and PBS controls; Dihydrochloride. On the procedure:
(§1) The antiproliferative effects of BA-1037 were tested by a thymidine uptake assay with several different human cancer cell lines grown in culture. The cell lines tested were HEC-1B human adnocarcinoma, SK-MEL-1 human malignant melanoma, and Caco-2 human colorectal adenocarcinoma. The cells were seeded in a 96 well plate and after 2 hours the cells were treated with test BA-1037 compound or with control solutions. The control solutions were PBS as a negative control, and with complete medium plus the DMSO vehicle (at 0.1% or 1%). BA-1037 was added at three different concentrations: 1 uM, 10, uM or 100 uM. Each control solution and test solution was plated in triplicate for each cell line. The plate was incubated at 37 C. with 5% CO2 in a humidified atmosphere for approximately 54 hours. A volume of 0.02 ml of 3H-methy thymidine which contained 1.0 uCi was added to each well. The culture was incubated a further 18 hours. Using an automated cell harvestor the cells from each well were aspirated onto a glass microfiber filter. The cells were broken with distilled water to leave mainly the DNA on the filter. Each filter was placed in a scintillation counter (TopCount NXT). At appropriate settings for the 3H, each filter was counted for one minute. The results are expressed as CPM (counts per minute).

Series [6] deals with glycogen synthatase kinase 3 beta (GSKB) (Homo sapiens, UniProt P49841). Nature of the series: GSK B kinase activity of compounds (FIG. 10). The following applies: 10 uM. It counts as biochemical.
Series [7] concerns the target T2, human Rho kinase II (ROCK-II (h)) (Homo sapiens, UniProt O75116).
T2 construct: purchased
Kind of series: Commercial inhibition assay with recombinant human ROCKII, IC50 curves (FIGS. 8, 9). It counts as biochemical. The source says:
Referring to FIGS. 8 and 9 inhibiton of ROCKII activity and determination of IC50 may also be done throught the use of known (i.e. commercial) inhibition assays that use recombinant human ROCKII.

The subject of series [8] is SK-MEL-1 human malignant melanoma. Kind of series: Thymidine uptake anti-proliferation assay, SK-MEL-1. The series is classed as cell-based. As to the method:
as §1

The values that follow come from patent US20040138272A1, “1,4-Substituted cyclohexane derivatives” (priority 2002, published 2004).

Structures are written as SMILES. Entries after “also recorded” stand apart in the source; their conditions may differ. Read-outs that look alike come from different tables or passages of the source.

T2 sequence (O75116 whole entry): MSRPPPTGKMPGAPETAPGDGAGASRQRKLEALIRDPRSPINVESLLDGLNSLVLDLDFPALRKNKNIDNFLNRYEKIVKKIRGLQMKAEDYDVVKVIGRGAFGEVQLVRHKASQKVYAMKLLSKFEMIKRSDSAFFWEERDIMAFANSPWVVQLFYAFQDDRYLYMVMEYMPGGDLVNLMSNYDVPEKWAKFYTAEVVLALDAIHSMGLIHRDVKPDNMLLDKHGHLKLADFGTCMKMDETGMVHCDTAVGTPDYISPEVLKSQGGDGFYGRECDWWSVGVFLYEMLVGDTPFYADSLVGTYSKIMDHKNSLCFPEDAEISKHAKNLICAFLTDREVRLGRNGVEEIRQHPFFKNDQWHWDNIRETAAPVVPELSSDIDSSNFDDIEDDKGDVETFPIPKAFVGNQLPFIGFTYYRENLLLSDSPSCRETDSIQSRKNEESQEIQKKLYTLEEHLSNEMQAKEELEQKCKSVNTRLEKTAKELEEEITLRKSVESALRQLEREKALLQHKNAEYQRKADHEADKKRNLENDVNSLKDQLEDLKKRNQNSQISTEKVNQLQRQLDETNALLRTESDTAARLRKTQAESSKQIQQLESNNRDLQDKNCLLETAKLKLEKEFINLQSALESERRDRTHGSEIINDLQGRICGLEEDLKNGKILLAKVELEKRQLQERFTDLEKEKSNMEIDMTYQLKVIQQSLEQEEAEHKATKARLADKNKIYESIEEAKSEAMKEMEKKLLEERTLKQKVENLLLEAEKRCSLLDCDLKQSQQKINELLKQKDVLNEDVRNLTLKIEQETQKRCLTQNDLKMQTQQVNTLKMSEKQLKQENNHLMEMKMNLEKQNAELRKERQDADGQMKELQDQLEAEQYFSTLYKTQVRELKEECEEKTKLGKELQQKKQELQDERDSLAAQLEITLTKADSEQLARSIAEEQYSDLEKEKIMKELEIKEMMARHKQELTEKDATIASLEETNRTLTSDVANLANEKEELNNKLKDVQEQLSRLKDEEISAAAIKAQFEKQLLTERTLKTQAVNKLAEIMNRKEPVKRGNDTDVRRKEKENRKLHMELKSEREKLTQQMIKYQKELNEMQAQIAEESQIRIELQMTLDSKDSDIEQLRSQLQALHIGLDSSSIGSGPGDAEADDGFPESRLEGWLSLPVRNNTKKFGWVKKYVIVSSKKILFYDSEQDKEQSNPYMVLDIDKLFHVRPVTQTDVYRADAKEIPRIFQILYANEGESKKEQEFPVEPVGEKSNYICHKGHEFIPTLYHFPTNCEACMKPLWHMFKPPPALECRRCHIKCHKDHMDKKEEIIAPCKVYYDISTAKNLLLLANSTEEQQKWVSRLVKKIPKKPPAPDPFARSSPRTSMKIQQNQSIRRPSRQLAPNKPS
Chain of glycogen synthatase kinase 3 beta (GSKB) (P49841 whole entry): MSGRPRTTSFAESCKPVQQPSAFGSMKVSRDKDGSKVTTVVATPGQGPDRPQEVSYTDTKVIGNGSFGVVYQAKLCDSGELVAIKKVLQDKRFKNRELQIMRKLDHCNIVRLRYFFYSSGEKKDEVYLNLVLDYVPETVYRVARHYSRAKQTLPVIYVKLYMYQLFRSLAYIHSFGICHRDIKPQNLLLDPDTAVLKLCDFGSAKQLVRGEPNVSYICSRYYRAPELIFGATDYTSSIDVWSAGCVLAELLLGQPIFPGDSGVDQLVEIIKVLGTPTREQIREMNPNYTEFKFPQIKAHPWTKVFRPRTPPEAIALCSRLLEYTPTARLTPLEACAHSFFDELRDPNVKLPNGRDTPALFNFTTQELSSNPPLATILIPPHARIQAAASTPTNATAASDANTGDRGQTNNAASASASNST
T1 sequence (Q62868 11-550 limits assumed): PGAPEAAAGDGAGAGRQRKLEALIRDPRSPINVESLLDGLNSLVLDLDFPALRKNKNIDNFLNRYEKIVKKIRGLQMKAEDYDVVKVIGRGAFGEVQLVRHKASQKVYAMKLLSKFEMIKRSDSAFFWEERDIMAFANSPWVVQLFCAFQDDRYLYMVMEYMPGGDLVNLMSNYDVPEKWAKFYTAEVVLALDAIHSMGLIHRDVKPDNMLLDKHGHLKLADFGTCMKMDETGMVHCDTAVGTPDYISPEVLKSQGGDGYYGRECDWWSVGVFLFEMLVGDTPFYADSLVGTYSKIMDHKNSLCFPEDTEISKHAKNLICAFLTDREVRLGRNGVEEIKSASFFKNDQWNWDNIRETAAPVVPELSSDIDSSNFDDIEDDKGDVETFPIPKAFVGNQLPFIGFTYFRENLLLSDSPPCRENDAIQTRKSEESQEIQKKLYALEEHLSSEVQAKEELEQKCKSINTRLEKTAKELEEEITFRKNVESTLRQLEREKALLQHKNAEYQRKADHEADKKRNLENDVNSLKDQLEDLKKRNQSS
Chain of MAPKAP-K1b (A0A5F9C4L9 1-740): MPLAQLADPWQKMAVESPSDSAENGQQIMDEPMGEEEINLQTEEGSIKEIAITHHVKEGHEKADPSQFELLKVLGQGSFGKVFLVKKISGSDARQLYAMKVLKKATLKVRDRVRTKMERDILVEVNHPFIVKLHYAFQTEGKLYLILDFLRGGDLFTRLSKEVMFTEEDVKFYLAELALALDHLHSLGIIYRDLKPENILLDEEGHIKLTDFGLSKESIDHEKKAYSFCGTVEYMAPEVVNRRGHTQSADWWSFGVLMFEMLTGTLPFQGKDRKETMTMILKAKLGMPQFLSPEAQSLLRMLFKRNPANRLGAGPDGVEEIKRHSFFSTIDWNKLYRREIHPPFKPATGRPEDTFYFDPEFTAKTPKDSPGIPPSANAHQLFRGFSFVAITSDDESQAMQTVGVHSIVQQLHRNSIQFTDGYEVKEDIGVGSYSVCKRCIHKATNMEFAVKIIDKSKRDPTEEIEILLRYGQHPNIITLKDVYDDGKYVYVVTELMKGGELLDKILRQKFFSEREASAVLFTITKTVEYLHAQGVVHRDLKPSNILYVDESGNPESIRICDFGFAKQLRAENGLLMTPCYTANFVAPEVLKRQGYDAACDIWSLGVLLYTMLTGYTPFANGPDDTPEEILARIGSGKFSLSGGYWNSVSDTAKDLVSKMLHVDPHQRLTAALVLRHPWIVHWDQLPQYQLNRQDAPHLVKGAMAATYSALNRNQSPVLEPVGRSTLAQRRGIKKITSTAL
Chain of MSK1 (O75582 whole entry, species assumed): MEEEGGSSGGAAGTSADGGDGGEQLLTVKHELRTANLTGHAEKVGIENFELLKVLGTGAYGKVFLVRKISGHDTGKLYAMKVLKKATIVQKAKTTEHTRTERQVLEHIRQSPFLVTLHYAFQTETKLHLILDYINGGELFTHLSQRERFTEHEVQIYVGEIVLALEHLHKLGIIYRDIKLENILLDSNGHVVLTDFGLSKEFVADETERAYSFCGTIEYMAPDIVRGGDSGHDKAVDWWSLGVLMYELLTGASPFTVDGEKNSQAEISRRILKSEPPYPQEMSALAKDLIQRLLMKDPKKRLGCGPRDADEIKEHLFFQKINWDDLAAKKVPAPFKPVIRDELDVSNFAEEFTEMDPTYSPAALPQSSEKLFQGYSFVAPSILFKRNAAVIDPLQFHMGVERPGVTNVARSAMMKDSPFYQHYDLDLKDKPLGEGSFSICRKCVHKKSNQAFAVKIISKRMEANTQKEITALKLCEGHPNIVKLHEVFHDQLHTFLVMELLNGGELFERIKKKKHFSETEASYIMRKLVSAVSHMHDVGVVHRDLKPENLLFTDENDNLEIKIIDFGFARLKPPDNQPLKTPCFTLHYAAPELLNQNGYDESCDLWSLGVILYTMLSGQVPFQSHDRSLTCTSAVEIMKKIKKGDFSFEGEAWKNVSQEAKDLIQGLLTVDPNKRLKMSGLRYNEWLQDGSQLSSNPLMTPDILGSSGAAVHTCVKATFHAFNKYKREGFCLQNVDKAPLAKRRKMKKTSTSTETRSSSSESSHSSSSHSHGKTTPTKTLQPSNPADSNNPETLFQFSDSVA
Chain of PRK2 (Q16513 whole entry): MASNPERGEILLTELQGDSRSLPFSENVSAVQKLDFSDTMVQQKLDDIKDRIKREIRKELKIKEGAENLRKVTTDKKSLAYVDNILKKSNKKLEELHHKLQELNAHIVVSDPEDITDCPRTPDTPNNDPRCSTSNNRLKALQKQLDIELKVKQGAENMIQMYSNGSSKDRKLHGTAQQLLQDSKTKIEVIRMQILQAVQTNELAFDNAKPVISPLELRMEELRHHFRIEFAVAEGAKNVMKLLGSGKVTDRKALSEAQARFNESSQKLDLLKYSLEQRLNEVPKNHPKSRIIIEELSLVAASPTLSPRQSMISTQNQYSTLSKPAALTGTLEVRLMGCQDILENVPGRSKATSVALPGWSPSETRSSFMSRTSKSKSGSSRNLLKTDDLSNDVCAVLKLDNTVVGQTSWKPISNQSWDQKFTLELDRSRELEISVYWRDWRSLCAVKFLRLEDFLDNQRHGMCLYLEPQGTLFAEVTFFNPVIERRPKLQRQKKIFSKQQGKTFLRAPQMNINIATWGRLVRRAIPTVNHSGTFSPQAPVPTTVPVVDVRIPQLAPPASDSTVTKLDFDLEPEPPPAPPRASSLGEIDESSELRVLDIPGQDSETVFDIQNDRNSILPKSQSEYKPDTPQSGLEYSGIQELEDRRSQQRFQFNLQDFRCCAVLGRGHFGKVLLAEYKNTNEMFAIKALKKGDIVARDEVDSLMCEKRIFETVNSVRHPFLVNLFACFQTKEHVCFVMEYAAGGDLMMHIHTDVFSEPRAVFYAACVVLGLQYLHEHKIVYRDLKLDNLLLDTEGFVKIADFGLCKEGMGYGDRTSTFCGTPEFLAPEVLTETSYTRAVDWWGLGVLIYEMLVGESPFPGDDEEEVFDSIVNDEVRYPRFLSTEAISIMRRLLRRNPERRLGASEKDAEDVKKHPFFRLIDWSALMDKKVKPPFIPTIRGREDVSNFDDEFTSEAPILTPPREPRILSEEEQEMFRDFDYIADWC

With `C[C@@H](N)[C@H]1CC[C@H](C(=O)Nc2ccncc2)CC1.Cl.Cl` (relative stereo) [Y-27632, (R)-trans-4-(Ethan-1′-amino)-N-(4″-pyridyl)cyclohexane Carboxamide Dihydrochloride], the “inhibition of MAPKAP-K1b” value on MAPKAP-K1b was “inhibits”. Also, on MSK1, the “inhibition of MSK1” value is reported as “inhibits”. In addition, the blood pressure entry in [1] (hypertensive rats) is listed as “reduces blood pressure”; in series [1] (normal rats), “does not affect blood pressure”. Also, the toxicity result in series [2] was “not toxic”. Also, on PRK2, the “inhibition of PRK2” value is on record as “inhibits”. In the series on PHK, the “inhibition of PHK” value is “inhibits”.

As for `C=CC[C@@H](N)[C@H]1CC[C@H](C(=O)Nc2ccncc2)CC1.Cl.Cl` (stereo in doubt) [BA-1003], the “neurite outgrowth on inhibitory MAG substrates (FIG. 4)” value in series [3] is “can promote neurite outgrowth; also recorded: able to overcome growth inhibition by MAG”. In addition, in [4], the “neurite outgrowth (FIG. 2)” value is on record as “promote neurite outgrowth”.

For the molecule `C=CC[C@H](N)[C@H]1CC[C@H](C(=O)Nc2ccncc2)CC1.Cl.Cl` (stereo in doubt) [BA-1017], the “inhibition of ROCKII activity (FIG. 3)” value against ROCK II is given as “inhibition of ROCKII activity”. In addition, in [3] (PC12 cells, 0.31 uM), the “neurite outgrowth on MAG substrates at the lowest concentration tested” value is reported as “better neurite outgrowth; also recorded: effective”. Moreover, in [3], the “neurite outgrowth on inhibitory MAG substrates (FIG. 4)” value is “can promote neurite outgrowth; also recorded: able to overcome growth inhibition by MAG”. Besides, the “neurite outgrowth (FIG. 2)” value in [4] is “promote neurite outgrowth”.

For `CCCCCCCCNN[C@H]1CC[C@H](C(=O)Nc2ccncc2)CC1.Cl.Cl` [BA-1037, trans-4-[N′-(Octyl)hydrazino]-N-(4′″-pyridyl)cyclohexane Carboxamide Dihydrochloride], in series [5], the “cell proliferation, highest dose tested” value was “significantly blocked cell proliferation; also recorded: completely block proliferation”. Moreover, in series [6], the “activity towards GSKB (FIG. 10)” value is on record as “can exert activity”. Besides, in series [7], the IC50 – broadly, the midpoint of a concentration-inhibition curve – is 6.5 µM. Moreover, the “cell proliferation, all three doses” value in series [8] (1 uM, 10 uM and 100 uM, versus DMSO and PBS controls, Dihydrochloride) is “significantly blocked cell proliferation; also recorded: reduce cell proliferation”. Besides, the “cell proliferation, highest concentration tested” value in series [8] (100 uM) is given as “complete arrest of cell proliferation”. For the same molecule, the “neurite growth by bioassay, normalized to BA-1016 (FIG. 7)” value in series [4] (35 uM) is reported as “equally well as BA-1016”.
